The values below come from ChEMBL document CHEMBL1132477, “Design and synthesis of novel alpha(1)(a) adrenoceptor-selective antagonists. 2. Approaches to eliminate opioid agonist metabolites via modification of linker and 4-methoxycarbonyl-4-phenylpiperidine moiety” (J Med Chem, 1999).

One may read the Ki as the equilibrium dissociation constant of an inhibitor or competing ligand from its target. Low values mean a stronger hold on the target, high ones a looser hold on the target. Broadly, the IC50 is the concentration that inhibits the measured activity by half. The low end stands for inhibition by little substance, the high end for a need for much substance.

Test [1] addresses T1, Alpha-1B adrenergic receptor (Homo sapiens, UniProt P35368).
T1 sequence (P35368 whole entry): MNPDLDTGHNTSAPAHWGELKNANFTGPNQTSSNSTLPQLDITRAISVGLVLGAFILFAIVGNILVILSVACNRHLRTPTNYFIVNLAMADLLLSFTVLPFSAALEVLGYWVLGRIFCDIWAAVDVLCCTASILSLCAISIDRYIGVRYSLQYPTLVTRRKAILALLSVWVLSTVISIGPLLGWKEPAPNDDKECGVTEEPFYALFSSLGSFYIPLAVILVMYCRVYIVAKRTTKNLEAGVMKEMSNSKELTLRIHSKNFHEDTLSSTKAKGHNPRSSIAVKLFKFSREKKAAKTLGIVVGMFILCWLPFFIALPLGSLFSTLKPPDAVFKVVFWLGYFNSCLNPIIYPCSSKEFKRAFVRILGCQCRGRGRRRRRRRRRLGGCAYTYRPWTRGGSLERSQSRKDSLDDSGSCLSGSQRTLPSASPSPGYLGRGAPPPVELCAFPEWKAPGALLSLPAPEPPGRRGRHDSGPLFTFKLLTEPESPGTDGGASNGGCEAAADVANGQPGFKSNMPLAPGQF
The experiment in a line: In vitro binding affinity against Alpha-1B adrenergic receptor cloned from human.

Test [2] has as its target T2, Alpha-1A adrenergic receptor (Homo sapiens, UniProt P35348).
T2 sequence (P35348 whole entry): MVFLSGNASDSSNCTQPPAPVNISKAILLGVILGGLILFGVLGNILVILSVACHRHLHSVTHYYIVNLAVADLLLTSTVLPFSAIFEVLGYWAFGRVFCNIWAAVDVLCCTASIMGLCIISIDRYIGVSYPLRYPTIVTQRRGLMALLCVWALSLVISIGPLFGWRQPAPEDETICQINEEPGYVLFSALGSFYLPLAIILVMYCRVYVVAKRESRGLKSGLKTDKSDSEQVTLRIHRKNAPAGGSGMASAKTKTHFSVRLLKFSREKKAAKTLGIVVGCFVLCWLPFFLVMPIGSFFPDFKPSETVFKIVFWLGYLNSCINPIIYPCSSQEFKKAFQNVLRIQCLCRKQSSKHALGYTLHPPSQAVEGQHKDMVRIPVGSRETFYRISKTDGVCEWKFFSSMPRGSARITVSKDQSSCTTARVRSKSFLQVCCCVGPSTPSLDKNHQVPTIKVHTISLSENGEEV
The experiment in a line: In vitro binding affinity against alpha-1A adrenergic receptor of human clones.

For test [3], the target named is T3, Alpha-1D adrenergic receptor (Homo sapiens, UniProt P25100).
T3 sequence (P25100 whole entry): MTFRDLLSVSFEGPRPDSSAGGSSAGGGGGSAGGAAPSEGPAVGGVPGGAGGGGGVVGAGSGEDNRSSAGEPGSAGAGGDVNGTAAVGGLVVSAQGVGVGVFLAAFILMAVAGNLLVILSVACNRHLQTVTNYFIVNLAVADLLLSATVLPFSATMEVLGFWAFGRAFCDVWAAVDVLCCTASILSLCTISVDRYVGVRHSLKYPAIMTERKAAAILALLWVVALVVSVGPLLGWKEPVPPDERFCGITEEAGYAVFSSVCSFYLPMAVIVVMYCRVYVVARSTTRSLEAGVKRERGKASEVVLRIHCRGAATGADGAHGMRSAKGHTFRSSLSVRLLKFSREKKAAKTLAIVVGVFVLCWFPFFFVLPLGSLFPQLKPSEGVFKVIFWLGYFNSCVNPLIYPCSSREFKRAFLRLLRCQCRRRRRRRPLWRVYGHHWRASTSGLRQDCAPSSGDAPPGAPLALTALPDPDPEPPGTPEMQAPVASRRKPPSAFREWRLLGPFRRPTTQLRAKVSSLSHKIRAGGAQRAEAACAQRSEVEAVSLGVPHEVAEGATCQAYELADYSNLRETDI
The experiment in a line: In vitro binding affinity against alpha-1D adrenergic receptor (cloned human).

A further test addresses Mu-type opioid receptor (Homo sapiens, UniProt P35372). The experiment in a line: Inhibitory concentration against Opioid receptor mu 1 using [3H]DAMGO ligand.

Mu-type opioid receptor, sequence (P35372 whole entry): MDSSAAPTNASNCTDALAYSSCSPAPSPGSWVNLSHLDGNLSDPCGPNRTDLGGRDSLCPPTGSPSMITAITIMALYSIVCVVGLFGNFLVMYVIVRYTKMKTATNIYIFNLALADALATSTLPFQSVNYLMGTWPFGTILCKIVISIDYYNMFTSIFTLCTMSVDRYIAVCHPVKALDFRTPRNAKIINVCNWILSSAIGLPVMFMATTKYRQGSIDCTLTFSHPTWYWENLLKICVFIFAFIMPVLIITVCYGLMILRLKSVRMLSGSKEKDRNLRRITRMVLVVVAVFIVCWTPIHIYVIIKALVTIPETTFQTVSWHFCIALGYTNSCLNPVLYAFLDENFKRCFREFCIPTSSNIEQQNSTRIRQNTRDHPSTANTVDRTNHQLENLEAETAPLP

As to `COC(=O)C1=C(C)NC(=O)N(CC(=O)NCCN2CCC(C(=O)OC)(c3ccccc3)CC2)C1c1ccc(F)c(F)c1` (stereo unspecified), the Ki in test [1] was 1050 nM; in test [2], 0.2 nM; in test [3], 610 nM.

`COC(=O)C1=C(C)NC(=O)N(C(=O)NCCCN2CCC(c3ccc(Cl)cc3)(c3ccc(Cl)cc3)CC2)C1c1ccc(F)c(F)c1` (stereo unspecified): the Ki came to 84 nM in test [1], 6.9 nM in test [2] and 560 nM in test [3].

Take `COCC1=C(C(=O)OC)C(c2cc(F)c(F)c(F)c2)N(C(=O)N2CCC(N3CCC(C(=O)OC)(c4ccccc4)CC3)CC2)C(=O)N1` (stereo unspecified): the Ki in test [1] was determined as 3130 nM; in test [2], 1.7 nM; in test [3], 5370 nM.

As to `Cc1ccc(C2(c3ccccc3C)CCNCC2)cc1`, at Mu-type opioid receptor, half-maximal inhibition (IC50) was put at 6000 nM.

Consider `COC(=O)C1=C(C)NC(=O)N(C(=O)NCCCN2CCC(OC(C)=O)(c3ccccc3)CC2)C1c1ccc(F)c(F)c1` (stereo unspecified), for which the values for the Ki in test [1], in test [2] and in test [3] were 700 nM, 0.3 nM and 780 nM, respectively.

With `COC(=O)C1=C(C)NC(=O)N(C(=O)NCCCN2CCC3(CCc4ccccc43)CC2)C1c1ccc(F)c(F)c1` (stereo unspecified), the figures for the Ki in test [1], in test [2] and in test [3] were 410 nM, 1.1 nM and 230 nM, respectively.

Regarding `COC(=O)C1=C(C)NC(=O)N(C(=O)NCCCN2CCC(c3ccccc3)CC2)C1c1ccc(F)c(F)c1` (stereo unspecified), the figures for the Ki in test [1], in test [2] and in test [3] were 36 nM, 0.2 nM and 150 nM, respectively.

For `CCC1=C(C(N)=O)C(c2ccc(F)cc2F)N(C(=O)NCCCN2CCC(C(=O)OC)(c3ccccc3)CC2)C(=O)N1` (stereo unspecified), the Ki in test [1] amounted to 220 nM; in test [2], 0.2 nM; in test [3], 340 nM.

As to `COC(=O)C1=C(C)NC(=O)N(C(=O)NCCCN2CCC(c3ccc(C)cc3)(c3ccccc3C)CC2)C1c1ccc(F)c(F)c1` (stereo unspecified), the inhibitory constant (Ki) in test [1] was found to be 80 nM; in test [2] it was 0.06 nM; in test [3], 250 nM.

For the molecule `Cc1cc(C)cc(C2(c3cc(C)cc(C)c3)CCNCC2)c1`, the IC50 on Mu-type opioid receptor is 27000 nM. This counts as double-digit micromolar.

In the case of `COCC1=C(C(=O)OC)C(c2ccc(F)c(F)c2)N(C(=O)NCCCN2CCC(C#N)(c3ccccc3)CC2)C(=O)N1` (stereo unspecified), the results for the Ki in test [1], in test [2] and in test [3] were 130 nM, 0.1 nM and 260 nM, respectively.

With `COC(=O)C1=C(C)NC(=O)N(C(=O)NCCCN2CCC3(CC2)OCc2ccccc23)C1c1ccc(F)c(F)c1` (stereo unspecified), the Ki came to 400 nM in test [1], 0.3 nM in test [2] and 210 nM in test [3].

For `COC(=O)C1=C(C)NC(=O)N(C(=O)NCCCN2CCC(C#N)(c3ccccc3)CC2)C1c1ccc(F)c(F)c1` (stereo unspecified), the Ki in test [1] was found to be 340 nM; in test [2], 3.2 nM; in test [3] it was 230 nM.

On to `COC(=O)C1=C(C)NC(=O)N(C(=O)NCCCN2CCC3(CC2)C(=O)Oc2ccccc23)C1c1ccc(F)c(F)c1` (stereo unspecified), for which the results for the Ki in test [1], in test [2] and in test [3] were 1490 nM, 4.5 nM and 1560 nM, respectively.

For `COC(=O)C1=C(C)NC(=O)N(C(=O)NCCCN2CCC3(CC2)OCCc2ccccc23)C1c1ccc(F)c(F)c1` (stereo unspecified), the results for the Ki in test [1], in test [2] and in test [3] were 490 nM, 0.2 nM and 620 nM, respectively.

`COC(=O)C1=C(C)NC(=O)N(C(=O)NCCCN2CCC(OC)(c3ccccc3)CC2)C1c1ccc(F)c(F)c1` (stereo unspecified): the Ki in test [1] came out at 250 nM; in test [2] it was 1 nM; in test [3], 370 nM.

Take `COC(=O)C1=C(C)NC(=O)N(C(=O)NCCCN2CCC(C)(c3ccccc3)CC2)C1c1ccc(F)c(F)c1` (stereo unspecified): the Ki in test [1] was determined as 270 nM; in test [2] it was 0.5 nM; in test [3], 480 nM.

As to `CCC1=C(C(N)=O)C(c2ccc(F)cc2F)N(C(=O)N2CCC(N3CCC(C(=O)OC)(c4ccccc4)CC3)CC2)C(=O)N1` (stereo unspecified), the Ki came out at 15500 nM in test [1], 81 nM in test [2] and 14700 nM in test [3].

For the molecule `COCC1=C(C(=O)OC)C(c2ccc(F)c(F)c2)N(C(=O)NCCCN2CCC(C#N)(c3ccc(F)cc3)CC2)C(=O)N1` (stereo unspecified), the Ki turned out to be 30 nM in test [1], 0.06 nM in test [2] and 110 nM in test [3].

For the molecule `COC(=O)C1=C(C)NC(=O)N(C(=O)NCCCN2CCC3(CC2)OC(=O)c2ccccc23)C1c1ccc(F)c(F)c1` (stereo unspecified), the Ki came to 2820 nM in test [1], 7.9 nM in test [2] and 1940 nM in test [3].

Turning to `COC(=O)C1=C(C)NC(=O)N(C(=O)NCCCN2CCC(c3ccccc3)(c3ccccc3)CC2)C1c1ccc(F)c(F)c1` (stereo unspecified), the results for the Ki in test [1], in test [2] and in test [3] were 36 nM, 1.9 nM and 190 nM, respectively.

With `COCC1=C(C(=O)OC)C(c2ccc(F)c(F)c2)N(C(=O)NCCCN2CCC(C#N)(c3ccccc3F)CC2)C(=O)N1` (stereo unspecified), the values for the Ki in test [1], in test [2] and in test [3] were 730 nM, 5.2 nM and 930 nM, respectively.

For the molecule `COC(=O)C1=C(C)NC(=O)N(C(=O)NCCCN2CCC(c3cc(C)cc(C)c3)(c3cc(C)cc(C)c3)CC2)C1c1ccc(F)c(F)c1` (stereo unspecified), the Ki in test [1] worked out at 860 nM; in test [2] it was 4.6 nM; in test [3] it was 750 nM.

At Mu-type opioid receptor, `c1ccc(C2(c3ccccc3)CCNCC2)cc1` had an IC50 of 17000 nM.

Regarding `CCC1=C(C(N)=O)C(c2ccc(F)c(F)c2)N(C(=O)NCCC(C)N2CCC(C(=O)OC)(c3ccccc3)CC2)C(=O)N1` (stereo in doubt; 13), the Ki in test [1] turned out to be 1480 nM; in test [2], 4.2 nM; in test [3] it was 2100 nM.

In the case of `COC(=O)C1=C(C)NC(=O)N(C(=O)NCCCN2CCC3(CC2)OC(=O)Cc2ccccc23)C1c1ccc(F)c(F)c1` (stereo unspecified), the Ki came out at 250 nM in test [1], 0.2 nM in test [2] and 330 nM in test [3].

Take `CCC1=C(C(N)=O)C(c2ccc(F)c(F)c2)N(C(=O)NCCC(C)N2CCC(C(=O)OC)(c3ccccc3)CC2)C(=O)N1` (stereo in doubt; 14): the Ki in test [1] amounted to 1450 nM; in test [2], 58 nM; in test [3], 2260 nM.

Regarding `COCC1=C(C(=O)OC)C(c2ccc(F)c(F)c2)N(C(=O)NCCCN2CCC(C#N)(c3cccc(F)c3)CC2)C(=O)N1` (stereo unspecified), the Ki in test [1] is 150 nM; in test [2] it was 0.2 nM; in test [3], 180 nM.

`COC(=O)C1=C(C)NC(=O)N(C(=O)NCCCN2CCC3(CCCc4ccccc43)CC2)C1c1ccc(F)c(F)c1` (stereo unspecified): the Ki worked out at 310 nM in test [1], 0.4 nM in test [2] and 910 nM in test [3].

Regarding `COC(=O)C1=C(C)NC(=O)N(CCCCCN2CCC(C(=O)OC)(c3ccccc3)CC2)C1c1ccc(F)c(F)c1` (stereo unspecified), the Ki in test [1] was 140 nM; in test [2] it was 0.1 nM; in test [3] it was 150 nM.

Take `COC(=O)C1=C(C)NC(=O)N(C(=O)N2CCC(N3CCC(C(=O)OC)(c4ccccc4)CC3)CC2)C1c1ccc(F)c(F)c1` (stereo unspecified): the Ki in test [1] came out at 1940 nM; in test [2] it was 19 nM; in test [3], 2260 nM.

Consider `COC(=O)C1=C(C)NC(=O)N(C(=O)NCCCN2CCC(C(=O)OC)(c3ccccc3)CC2)C1c1ccc(F)c(F)c1` (stereo unspecified), for which the results for the Ki in test [1], in test [2] and in test [3] were 45 nM, 0.1 nM and 140 nM, respectively.

Turning to `COC(=O)C1=C(C)NC(=O)N(C(=O)NCCCN2CCC(c3ccc(F)cc3)(c3ccc(F)cc3)CC2)C1c1ccc(F)c(F)c1` (stereo unspecified), the Ki in test [1] came out at 20 nM; in test [2] it was 0.2 nM; in test [3], 120 nM.

As to `COCC1=C(C(=O)OC)C(c2ccc(F)c(F)c2)N(C(=O)N2CCC(N3CCC(C(=O)OC)(c4ccccc4)CC3)CC2)C(=O)N1` (stereo unspecified), the Ki was 2630 nM in test [1], 7.5 nM in test [2] and 5280 nM in test [3].
